Data taken from patent publication US20230414626A1, “INDUCTION OF FERROPTOSIS FOR CANCER THERAPY” (Memorial Sloan Kettering Cancer Center, priority 2020, published 2023).

How the values were obtained:
[1] = test system: SREBP1 (SREBP1m); assay: Western blot of mature SREBP1; type: cell-based, human; conditions: RSL3-resistant cancer cells (BT474, MDA-MB-453, MCF7); CCI-779 0.5 μM
Description: FIG. 4 A-F. mTORC1 activation suppresses ferroptosis by upregulating SREBP1. (A) BT474 and MDA-MB-453 cells were treated as indicated. RSL3, 0.5 μM; CCI-779, 0.5 μM. Cell lysates were collected after 8 h and 24 h of treatment for BT474 cells and MDA-MB-453 cells, respectively, for western blot detecting […], total S6K, unprocessed SREBP1 (SREBP1(p)) and processed, mature SREBP1 (SREBP1(m)). (B) Cells were treated as indicated. RSL3, 0.5 μM for BT474 cells and 1 μM for MDA-MB-453 cells; Fer-1, 1 μM. (C) Cells were treated as in panel B. Lipid peroxidation was measured. (D) 3D spheroids derived from BT474 cells harboring control or SREBF1 sgRNA were treated as indicated. CCI-779, 0.5 μM; RSL3, 0.5 μM; Fer-1, 1 μM. Top, cell death stained by Sytox Green (scale bar, 100 μm). Bottom, cell viability. (E) SREBP1m was overexpressed in BT474 cells and determined by western blot. Cells were treated as indicated. RSL3, 0.5 μM; CCI-779, 0.5 μM. Cell death was measured (bottom panel). (F) 3D spheroids derived from BT474 cells were treated as indicated. RSL3, 0.5 μM; CCI-779, 0.5 μM; Fer-1, 1 μM. Top, cell death stained by Sytox Green (scale bar, 100 m). […]
FIG. 9 A-F. SREBP1 protects cells from ferroptosis. […] (C) Efficiency of SREBF1 Knockout in BT474, MDA-MB-453, and MCF7 cells was monitored by western blot. […] (F) SREBP1m was overexpressed in MCF7, MDA-MB-453 and A549 cells and determined by western blot. […]

[2] = test system: NRF2; assay: Western blot of NRF2; type: cell-based, human; conditions: BT474 cells, 8 h; RSL3 0.5 μM; Torin 1 μM
Description: FIG. 3 A-E. NRF2 is not the major mediator of the ferroptosis-suppressing activity of mTORC1. (A) BT474 cells were treated as indicated for 8 h. RSL3, 0.5 μM; Torin, 1 μM. Western blot was performed to measure […], total S6K and NRF2. (B) NRF2 was depleted by CRISPR/Cas9 technology in HT1080 cells. NRF2 level was measured by western blot. (C) Control or NRF2-depleted cells were treated as indicated. Erastin, 0.5 μM; RSL3, 25 nM. (D) HepG2 cells with or without NRF2 depletion were treated with cysteine starvation with or without CCI-779 (0.5 μM) as indicated. Sytox Green were added after 48 h for cell death staining (scale bar, 100 m). (E) PC-3 cells with or without NRF2 depletion were treated with cysteine starvation with or without CCI-779 (0.5 μM) as indicated. Sytox Green were added after 48 h for cell death staining (scale bar, 100 m).
Cell lysates were resolved on SDS-PAGE gels and transferred to a nitrocellulose membranes. The membranes were incubated in 5% skim milk for 1 hour at room temperature and then incubated with primary antibodies diluted in blocking buffer at 4° C. overnight. […]

CO[C@H]1C[C@@H]2CC[C@@H](C)[C@@](O)(O2)C(=O)C(=O)N2CCCC[C@H]2C(=O)O[C@H]([C@H](C)C[C@@H]2CC[C@@H](OC(=O)C(C)(CO)CO)[C@H](OC)C2)CC(=O)[C@H](C)/C=C(\C)[C@@H](O)[C@@H](OC)C(=O)[C@H](C)C[C@H](C)/C=C/C=C/C=C/1C [CCI-779, Temsirolimus]
level of the mature form of SREBP1 (SREBP1m) [1]: decreased

CCC(=O)N1CCN(c2ccc(-n3c(=O)ccc4cnc5ccc(-c6cnc7ccccc7c6)cc5c43)cc2C(F)(F)F)CC1 [Torin]
RSL3-induced NRF2 accumulation [2]: ablated
